Assay results reported in patent US20070270612A1, “Biocidal azole emulsion concentrates having high active ingredient content” (priority 2006, published 2007).
Like-named read-outs stand apart in the source and are kept apart here.

Columns and labels:
[1] = Solubility of biocides in solvents; assay type: physicochemical
Description: For example, Arch Wood Protection recently received US EPA registration on an end use wood preservative product having 5.0% tebuconazole, 5.0% propiconazole, 0.5% imidacloprid, and 89.5% inert ingredients (surfactants, etc). This is near the solubility limit of the carrier, that is, very little additional biocidal azole can be dissolved in that material. This is about 20 parts biocidal azoles per part of imidacloprid. Other commercially importants formulations include tebuconazole and imidacloprid in a ratio of about 50 parts to 1 part by weight, and 4 parts biocidal azoles (tebuconazole and propiconazole) per part by weight of permethin. In contrast, an exemplary formulation of the present invention comprises 15.0% tebuconazole (range 1-35%, preferably 5-20%), 15.0% propiconazole (range 1-40%, preferably 5-20%), 1.5% imidacloprid (range 0.2%-3%), 5.0% of an emulsifier blend (range 1-15%), 60.0% of a basic solvent such as N,N-dimethyldecanamide/octanamide (range 0.0-65%), and 3.5% N-methyl pyrrolidone (range 0.0-50%). The alkyl pyrrolidones can be included in component (A) compounds if an organic biocide is particularly difficult to dissolve.
Other biocides which could be used in this invention include those in the azole family and other organic molecules in general (fungicides and insecticides) that are applicable to wood preservation. These could be combined in any number of mixtures and variations, including two-ways, four-ways, etc. or alone. A large number of surfactants that can be used as emulsifier components to make an EC. It really comes down to the formulator's preference. Similarly, there are many other solvents that could be used to dissolve these active ingredients and make an EC or microemulsion from an emulsion concentrate (MEC). When the compositions are diluted and undergo sufficient shear to form a microemulsion, the resultant microemulsion is stable at all reasonably useful levels of water dilution and remain thermodynamically stable and clear, opalescent, or only slightly cloudy. […]

[2] = Particle size distribution on wet ball milling with 0.3 mm zirconia; assay type: physicochemical
Description: Milling tebuconazole with 0.3 mm zirconium oxide milling material. Tebuconazole is a preferred organic biocide for use in wood and also for selected foliar applications and for incorporation into biocidal materials. […] Exemplary other preferred biocides from the same class of material include cyproconazole, tetraconazole, difenoconazole, diniconazole, penconazole, imibenconazole, propiconazole, azaconazole, and epoxyconazole. […] A CB Mills Vertical Mill Model: L-1 mill was used in this experiment. […] The original d50 (the diameter at which 50% by weight of the particles have an effective diameter equal to or less than the d50) of the tebuconazole, prior to wet milling, was about 25 microns, with about a fourth of the tebuconazole in particles […] having a particle size less than 4 microns. The milling media was 0.3-0.5 mm Yttrium doped Zirconium Oxide. The density of the yttrium-doped zirconium oxide is ˜6.0 g/cm^3. […] Generally, for injecting into wood, we prefer less than 2% by weight of particles have a diameter greater than 1 micron, more preferably 0.7 microns. The residual large particles can be separated from the slurry by centrifugation and then be sent back to the mill for additional milling.

O=[N+]([O-])NC1=NCCN1Cc1ccc(Cl)nc1 [Imidacloprid]
solubility in most every EPA approved solvent [1]: sparingly soluble

CCCC1COC(Cn2cncn2)(c2ccc(Cl)cc2Cl)O1 (stereo not drawn) [propiconazole]
solubility in N,N-dimethylcapramide ([1]; solvent N,N-DMC): very soluble

CC(C)(C)C(O)(CCc1ccc(Cl)cc1)Cn1cncn1 (stereo not drawn) [Tebuconazole]
solubility in N,N-dimethylcapramide [1]: very soluble
Volume % With Diameter 1-10 μm ([2]; milling time 0 mins): 4 Volume %
Volume % With Diameter 10-25 μm ([2]; milling time 0 mins): 42.2 Volume %
Volume % With Diameter 25-50 μm ([2]; milling time 0 mins): 27.2 Volume %
Volume % With Diameter >50 μm ([2]; milling time 0 mins): 26.6 Volume %
Volume % With Diameter 0.2-1 μm ([2]; milling time 150 mins): 20.7 Volume %
Volume % With Diameter 1-10 μm ([2]; milling time 150 mins): 4.2 Volume %
Volume % With Diameter 10-25 μm ([2]; milling time 150 mins): 3.6 Volume %
Volume % With Diameter 25-50 μm ([2]; milling time 150 mins): 0 Volume %
Volume % With Diameter <0.2 μm ([2]; milling time 150 mins): 71.5 Volume %
Volume % With Diameter >50 μm ([2]; milling time 150 mins): 0 Volume %
d50 ([2]; prior to wet milling): about 25 microns
weight % having a particle size less than 4 microns ([2]; prior to wet milling): about 4 % by weight
